16 compounds from US20250282757A1, “ARYL ETHER-SUBSTITUTED HETEROCYCLIC COMPOUNDS AS GLP1R AGONISTS” (MINDRANK AI LTD., priority 2021, published 2025) can be followed below.

The target in one series is GLP-1R (Homo sapiens, UniProt P43220). Kind of series: Agonist activity on GLP-1R, HTRF cAMP detection in stably transfected GLP-1R/HEK293 cells. The format is cell-based. The following applies: for EC50: 30 min incubation; for Max activity: relative to top concentration of reference GLP-1(7-37). (In general: TR-FRET usually uses a lanthanide donor and a delayed reading to cut background.)

Series [1] in a line: Pharmacokinetic study in mice. The format is in vivo, CD-1 mice. The following applies: for F / clearance / AUC(0-inf) / half-life / Vd / Cmax: male CD-1 mice; for clearance rate compared with PF-06882961 / exposure compared with PF-06882961: mice; for clearance / AUC(0-inf) / half-life / Vd / Cmax: mouse, plasma; for AUC(0-inf): read-out: AUC0-inf; for half-life: read-out: T½ (converted); for Vd: read-out: Vdss; for Cmax: read-out: Cmax. The protocol:
The pharmacokinetic properties of some compounds of the present invention were evaluated in mice pharmacokinetic experiments. SPF male CD-1 mice from Beijing Vital River Laboratory Animal Technology Co., Ltd were used with 6 mice in each group. Compounds were dissolved in 10% solutol/90% saline. A single intravenous administration was given at a dose of 1 mg/kg in a volume of 1 mL/kg. A single intragastric administration was given at a dose of 5 mg/kg in a volume of 1 mL/kg. Animals were fasted overnight prior to the administration and resumed feeding 4 hours after administration, ad libitum to water. Blood was collected at 0.0830, 0.25, 0.5, 1, 2, 4, 6, 8 and 24 hours after dosing. About […] of whole blood was collected from the saphenous vein of animals and placed in an EDTA-K2 anticoagulation tube. The samples were centrifuged at 4° C. and 4200 rpm for 5 min, and the plasma was transferred into a centrifuge tube and stored at −80° C. until analysis. For plasma sample analysis, the test compounds and internal standards (Labetalol & tolbutamide & Verapamil & dexamethasone & glyburide & Celecoxib) were extracted from mice plasma by protein precipitation method with acetonitrile, and the extracts were analyzed by LC/MS/MS. The measured plasma concentration-time data of individual animals were analyzed with the non-compartmental model of Phoenix WinNonlin 7.0 (Pharsight, USA) software, and the pharmacokinetic parameters of mice were obtained as follows: maximum (peak) plasma drug concentration Cmax; Peak time Tmax; half-life T1/2 and area under the plasma concentration-time curve extrapolated to infinity AUC0-inf.

Like-named read-outs stand apart in the source and are kept apart here.

GLP-1R, sequence (P43220 24-463): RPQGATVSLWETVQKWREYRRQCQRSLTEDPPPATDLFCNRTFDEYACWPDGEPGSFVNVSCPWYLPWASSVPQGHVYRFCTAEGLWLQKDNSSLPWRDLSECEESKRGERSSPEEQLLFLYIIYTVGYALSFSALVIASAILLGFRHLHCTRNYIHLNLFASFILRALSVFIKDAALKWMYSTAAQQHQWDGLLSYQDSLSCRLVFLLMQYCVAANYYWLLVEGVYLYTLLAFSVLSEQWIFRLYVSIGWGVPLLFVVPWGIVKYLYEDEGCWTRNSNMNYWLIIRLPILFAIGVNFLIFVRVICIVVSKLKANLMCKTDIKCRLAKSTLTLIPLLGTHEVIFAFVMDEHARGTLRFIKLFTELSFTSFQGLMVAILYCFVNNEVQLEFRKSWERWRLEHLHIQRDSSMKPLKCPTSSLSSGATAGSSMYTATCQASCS

With `N#Cc1ccc(OCc2cccc(OC3CCN(Cc4nc5c(F)cc(C(=O)O)cc5n4C[C@@H]4CCO4)CC3)n2)c(F)c1` [Compound 56, (S)-2-((4-((6-((4-cyano-2-fluorophenoxy)methyl)pyridin-2-yl)oxy)piperidin-1-yl)methyl)-4-fluoro-1-(oxetan-2-ylmethyl)-1H-benzo[d]imidazole-6-carboxylic acid], at GLP-1R, the EC50 – broadly, the midpoint of the concentration-response curve – turned out to be 0.21 nM and the Max activity is recorded as 124.9%. Further, in series [1] (5 mg/kg po), the F came out at 54.4%; the AUC(0-inf) was determined as 2100 ng·h/mL; the maximum concentration (Cmax) – broadly, the maximum level reached in the sampled fluid or tissue – is 1640 ng/mL; the half-life is 1 h. Besides, in series [1], the “clearance rate compared with PF-06882961” value is recorded as “lower clearance rates” and the “exposure compared with PF-06882961” value is on record as “higher exposure”. For the same compound, in series [1] (1 mg/kg iv), the clearance (in general, the volume of plasma or blood freed of the substance per unit of time) was 21.7 mL/min/kg; the AUC(0-inf) was found to be 771 ng·h/mL; the half-life was 2.3 h; the Vd came to 1.2 L/kg.
Turning to `O=C(O)c1cc(F)c2nc(CN3CCC(Oc4cccc(COc5ccc(Cl)cc5F)n4)CC3)n(C[C@@H]3CCO3)c2c1` [Compound C23, (S)-2-((4-((6-((4-chloro-2-fluorophenoxy)methyl)pyridin-2-yl)oxy)piperidin-1-yl)methyl)-4-fluoro-1-(oxetan-2-ylmethyl)-1H-benzo[d]imidazole-6-carboxylic acid], on GLP-1R, the concentration for a half-maximal effect (EC50) came to 0.249 nM and the Max activity amounted to 109.1%. For the same compound, in series [1] (5 mg/kg po), the F came to 45.1%, the AUC(0-inf) stood at 2580 ng·h/mL, the maximum concentration (Cmax) was 2190 ng/mL and the half-life was 1.4 h. In series [1], the “clearance rate compared with PF-06882961” value was “lower clearance rates” and the “exposure compared with PF-06882961” value is recorded as “higher exposure”. Further, in series [1] (1 mg/kg iv), the clearance worked out at 15 mL/min/kg, the AUC(0-inf) turned out to be 1140 ng·h/mL, the half-life was 1 h and the Vd worked out at 1 L/kg.
As for `N#Cc1ccc(OCc2nc(OC3CCN(Cc4nc5ccc(C(=O)O)cc5n4C[C@@H]4CCO4)CC3)ccc2F)c(F)c1` [Compound C83, (S)-2-((4-((6-((4-cyano-2-fluorophenoxy)methyl)-5-fluoropyridin-2-yl)oxy)piperidin-1-yl)methyl)-1-(oxetan-2-ylmethyl)-1H-benzo[d]imidazole-6-carboxylic acid], at GLP-1R, a half-maximal effect (EC50) was put at 0.705 nM and the Max activity is listed as 111.1%.
The corresponding values for `N#CCC1(Cn2c(CN3CCC(Oc4cccc(COc5ccc(Cl)cc5F)n4)CC3)nc3ccc(C(=O)O)cc32)CC1` [Compound C84, 2-((4-((6-((4-chloro-2-fluorophenoxy)methyl)pyridin-2-yl)oxy)piperidin-1-yl)methyl)-1-((1-(cyanomethyl)cyclopropyl)methyl)-1H-benzo[d]imidazole-6-carboxylic acid] are 0.246 nM and 136.4%.
The corresponding values for `N#Cc1ccc(COc2cccc(OCC3CCN(Cc4nc5ccc(C(=O)O)cc5n4C[C@@H]4CCO4)CC3)n2)c(F)c1` [Compound S1] are 1400 nM and 93.7%.
The corresponding values for `N#Cc1ccc(COc2cccc(OC3CCN(Cc4nc5ccc(C(=O)O)cc5n4C[C@@H]4CCO4)CC3)n2)c(F)c1` [Compound S2, (S)-2-((4-((6-((4-cyano-2-fluorobenzyl)oxy)pyridin-2-yl)oxy)piperidin-1-yl)methyl)-1-(oxetan-2-ylmethyl)-1H-benzo[d]imidazole-6-carboxylic acid] are 5.58 nM and 139.9%.
On to `N#Cc1ccc(COc2cccc(OC3CN(Cc4nc5ccc(C(=O)O)cc5n4C[C@@H]4CCO4)C3)n2)c(F)c1` [Compound S3, (S)-2-((3-((6-((4-cyano-2-fluorobenzyl)oxy)pyridin-2-yl)oxy)azetidin-1-yl)methyl)-1-(oxetan-2-ylmethyl)-1H-benzo[d]imidazole-6-carboxylic acid], for which, on GLP-1R, the EC50 was determined as 2170 nM and the Max activity amounted to 70.1%.
The corresponding values for `CCn1cncc1Cn1c(CN2CCC(Oc3cccc(OCc4ccc(C#N)cc4F)n3)CC2)nc2ccc(C(=O)O)cc21` [Compound S4, 2-((4-((6-((4-cyano-2-fluorobenzyl)oxy)pyridin-2-yl)oxy)piperidin-1-yl)methyl)-1-((1-ethyl-1H-imidazol-5-yl)methyl)-1H-benzo[d]imidazole-6-carboxylic acid] are 0.29 nM and 106.9%.
The corresponding values for `N#Cc1ccc(COc2cccc(OC3CCN(Cc4nc5ccc(C(=O)O)cc5n4C[C@@H]4CCO4)CC3)c2)c(F)c1` [Compound S5, (S)-2-((4-(3-((4-cyano-2-fluorobenzyl)oxy)phenoxy)piperidin-1-yl)methyl)-1-(oxetan-2-ylmethyl)-1H-benzo[d]imidazole-6-carboxylic acid] are 15.4 nM and 125.2%.
The corresponding values for `N#CCC1(Cn2c(CN3CCC(Oc4cccc(OCc5ccc(C#N)cc5F)c4)CC3)nc3c(F)cc(C(=O)O)cc32)CC1` [Compound S6] are 2.6 nM and 114.9%.
For the compound `N#CCC1(Cn2c(CN3CCC(Oc4cccc(OCc5ccc(C#N)cc5F)n4)CC3)nc3c(F)cc(C(=O)O)cc32)CC1` [Compound S20], at GLP-1R, the response was half-maximal at 0.962 nM (EC50) and the Max activity came out at 129.1%.
The corresponding values for `N#Cc1ccc(COc2cccc(COC3CCN(Cc4nc5ccc(C(=O)O)cc5n4C[C@@H]4CCO4)CC3)n2)c(F)c1` [Compound S22, (S)-2-((4-((6-((4-cyano-2-fluorobenzyl)oxy)pyridin-2-yl)methoxy)piperidin-1-yl)methyl)-1-(oxetan-2-ylmethyl)-1H-benzo[d]imidazole-6-carboxylic acid] are 731 nM and 92.7%.
The corresponding values for `CCn1cncc1Cn1c(CN2CCC(Oc3cccc(OCc4ccc(C#N)cc4F)c3)CC2)nc2ccc(C(=O)O)cc21` [Compound S23, 2-((4-(3-((4-cyano-2-fluorobenzyl)oxy)phenoxy)piperidin-1-yl)methyl)-1-((1-ethyl-1H-imidazol-5-yl)methyl)-1H-benzo[d]imidazole-6-carboxylic acid] are 1.47 nM and 98.0%.
Regarding `O=C(O)/C=C/c1ccc2nc(CN3CCC(Oc4ccc(F)c(OCc5ccc(Cl)cc5F)n4)CC3)n(C[C@@H]3CCO3)c2c1` [Compound S36], on GLP-1R, the EC50 came to 150 nM and the Max activity turned out to be 114.2%.
The corresponding values for `N#CCC1(Cn2c(CN3CCC(Oc4ccc(F)c(OCc5ccc(Cl)cc5F)n4)CC3)nc3c(F)cc(C(=O)O)cc32)CC1` [Compound S41, 2-((4-((6-((4-chloro-2-fluorobenzyl)oxy)-5-fluoropyridin-2-yl)oxy)piperidin-1-yl)methyl)-1-((1-(cyanomethyl)cyclopropyl)methyl)-4-fluoro-1H-benzo[d]imidazole-6-carboxylic acid] are 21.7 nM and 94.8%.
As for “Glucagon-like peptide-1 [GLP-1(7-37), reference compound]”, the Max activity on GLP-1R was determined as 98.1%.
